Data: publication PMC11355195 (Life, 2024)
Converted amounts (≈) assume the structure as drawn.

Tests used:
[1] = DPPH scavenging capacity; conditions: 0.1 mM DPPH
Protocol: The method utilized to test the compound’s efficacy in scavenging DPPH radicals was based on protocols detailed in references, with minor changes. The test was completed in duplicate for each concentration. A solution of 0.1 mM DPPH (2,2-diphenyl-1-picrylhydrazyl) was produced, and the compounds were evaluated at different concentrations ranging from 1 to 500 µg/mL. Ascorbic acid served as the positive control with concentrations ranging from 0.01 to 300 µg/mL [35].

[2] = ABTS scavenging activity
Excerpt: With a few minor adjustments, the procedure published by Re et al., was used to evaluate the test samples’ capacity to scavenge radicals against the ABTS (2,2′-azinobis-3-ethylbenzothiazoline-6-sulphonate) radical cation.

[3] = Oxygen radical absorbance capacity (ORAC); conditions: Trolox equivalents
Protocol: The ORAC (Oxygen Radical Absorbance Capacity) test was carried out using a modified version of the procedure reported by Huang et al.. This test examines the antioxidant capacity of compounds by examining their ability to neutralize oxygen radicals. The method was carried out utilizing a 96-well microplate format. First, 150 µL of fluorescein solution, produced as 8 × 10^−8 M fluorescein in 0.075 M phosphate buffer (pH 7.4), were dispersed to each well. Fluorescein is a fluorescent probe whose fluorescence lowers when it reacts with radicals. Next, 25 µL of the substance or mixture to be evaluated was added to the corresponding wells. Wells containing 25 µL of phosphate buffer served as blanks, and wells containing 25 µL of Trolox solution (from 10 to 100 µm) were utilized as standards. Control wells containing 50 µL phosphate buffer without any radicals were also added to provide a baseline. The reaction was initiated by adding 25 µL of a freshly produced solution of AAPH (2,2′-azobis(2-methylpropionamidine) dihydrochloride) at a concentration of 165.94 mM in phosphate buffer to each well, except for the control wells, at a temperature of 37 °C. AAPH creates peroxyl radicals that induce oxidative stress in the fluorescein solution, simulating free-radical attack. […] The fluorescence in-tensity of the mixture was then monitored at regular intervals for 120 min.

[4] = biological target: T1, COX-1 (Ovis aries, UniProt P05979); assay: COX-1-catalyzed prostaglandin production inhibition; format: biochemical, ram
T1 construct: The COX-1 enzyme was produced from ram seminal vesicles; purchased Cayman Chemical Company, Ann Arbor, MI, USA; host or cells: ram seminal vesicles (tissue)
T1 sequence (P05979 25-600): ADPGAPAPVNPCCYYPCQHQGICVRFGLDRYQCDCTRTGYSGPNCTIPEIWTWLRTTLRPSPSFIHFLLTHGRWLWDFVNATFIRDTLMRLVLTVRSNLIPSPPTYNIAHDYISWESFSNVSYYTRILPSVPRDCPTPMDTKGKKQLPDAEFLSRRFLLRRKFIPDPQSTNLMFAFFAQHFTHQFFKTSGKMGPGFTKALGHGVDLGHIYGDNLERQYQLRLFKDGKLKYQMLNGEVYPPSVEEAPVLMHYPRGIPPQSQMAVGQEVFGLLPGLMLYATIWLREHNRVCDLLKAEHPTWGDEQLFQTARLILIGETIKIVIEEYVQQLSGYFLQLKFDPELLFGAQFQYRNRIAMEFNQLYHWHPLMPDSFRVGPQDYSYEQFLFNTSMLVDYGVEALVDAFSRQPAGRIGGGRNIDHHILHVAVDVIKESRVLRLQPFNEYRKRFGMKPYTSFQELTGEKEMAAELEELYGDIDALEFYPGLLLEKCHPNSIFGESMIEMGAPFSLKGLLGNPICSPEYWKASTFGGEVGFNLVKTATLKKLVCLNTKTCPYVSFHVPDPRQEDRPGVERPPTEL
Protocol: The COX inhibitory effects of the substances were examined using a COX-1/COX-2-catalyzed prostaglandin production test, using a modified approach by Futaki et al.. The chemicals were dissolved in 4% DMSO to a final concentration of 100 µg/mL.
In this test, one unit of COX-1 or COX-2 enzyme was suspended in a 0.1 M Tris-HCl buffer (pH 7.5) containing hematin ([…]) and phenol (2 mM) as cofactors. The COX-1 enzyme was produced from ram seminal vesicles, while COX-2 was taken from sheep placenta with a purity of 70% (both from Cayman Chemical Company, Ann Arbor, MI, USA). The reaction mixture was preincubated with either the solvent vehicle (4% DMSO) or the test solution for 2 min at 37 °C. […] Arachidonic acid, tagged with radioactive carbon ([1–14C]), serves as a substrate for the COX enzymes. The mixture was then incubated for an additional 2 min at 37 °C. […] The organic solvent phase was removed, and the PGE2 level in the remaining aqueous phase was quantified using a radioimmunoassay with a liquid scintillation counter, which measures the radioactivity (disintegrations per minute, DPM) of the [1–14C]-labeled PGE2. The percentage inhibition of COX-catalyzed prostaglandin production by the test compounds was estimated by comparing the radioactivity of the samples with the solvent vehicle controls. […]

[5] = tested on: MCF-7; assay: MTT cell viability, MCF-7; format: cell-based, Human
Protocol: (§1) These cell lines were selected to represent distinct sub-types of breast cancer for extensive investigation. […] The medium was added with 10% heat-inactivated fetal calf serum (FCS) to supply vital growth hormones and nutrients necessary for cell proliferation. Additionally, 1% penicillin streptomycin was administered to avoid bacterial contamination, ensuring the sterility and integrity of the cell cultures. The cell cultures were maintained at 37 °C in a humidified environment containing 5% CO2. This controlled environment mimics physiological conditions in the human body, supporting optimal cell development and function. The humidified atmosphere prevents medium evaporation, while the 5% CO2 concentration maintains optimal pH values in the culture medium. These specialized circumstances and methods ensure that the breast cancer cell lines remain healthy and viable for experimental procedures, delivering dependable and reproducible results for research projects. The standard protocols followed for cultivating these cells are crucial for generating consistent and reliable data. Using well-characterized cell lines from a credible source like ATCC ensures the re-liability and comparability of the experimental outcomes.
(§2) This approach determines cell viability based on the ability of living cells to decrease MTT to a purple, water-insoluble formazan product. Cells were planted in 96-well plates at a density of 1 × 10^4 cells per well in 100 μL of complete culture media, which provides all necessary nutrients for cell growth. […] The cells were then treated with the compounds for 24, 48, and 72 h to determine the effect on cell viability over varied time intervals. Following each incubation time, 20 μL of MTT solution (at a concentration of 5 mg/mL in PBS) were applied to each well. The plates were further incubated for 4 h at 37 °C, during which time live cells decrease the MTT to formazan, creating purple crystals. At the end of the incubation, the medium containing the MTT was carefully aspirated, leaving only the formazan crystals in the bottom of the wells. […]

[6] = tested on: MDA-MB-231; assay: MTT cell viability, MDA-MB-231; format: cell-based, Human
Protocol: as §1, §2

[7] = tested on: MDA-MB-436; assay: MTT cell viability, MDA-MB-436; format: cell-based, Human
Protocol: as §1, §2

[8] = tested on: MCF-7 cells; conditions: at 24 and 48 h; ref Mari et al. (2021) [78]; read-out: IC50, survival of MCF-7 cells; cited from earlier work
[9] = tested on: peripheral blood mononuclear cells (PBMC); assay: MTT cell viability, PBMC (normal cell control); format: cell-based; conditions: MTT test, 72 h of treatment (Figure 3)
Protocol: This approach determines cell viability based on the ability of living cells to decrease MTT to a purple, water-insoluble formazan product. Cells were planted in 96-well plates at a density of 1 × 10^4 cells per well in 100 μL of complete culture media, which provides all necessary nutrients for cell growth. […] The cells were then treated with the compounds for 24, 48, and 72 h to determine the effect on cell viability over varied time intervals. Following each incubation time, 20 μL of MTT solution (at a concentration of 5 mg/mL in PBS) were applied to each well. The plates were further incubated for 4 h at 37 °C, during which time live cells decrease the MTT to formazan, creating purple crystals. At the end of the incubation, the medium containing the MTT was carefully aspirated, leaving only the formazan crystals in the bottom of the wells. To dissolve these crystals, 100 μL of DMSO were administered to each well. […] This formula quantifies the reduction in cell viability in response to the treatments compared to the control. […] Cisplatin, a known anticancer drug, was used as a reference drug at varying concentrations from 0.01 to 50 µg/mL.

[10] = MTT test, 72 h of treatment (Figure 3)

SMILES | DPPH Scavenging Capacity IC50 [1] | ABTS Scavenging Activity IC50 [2] | Oxygen Radical Absorbance Capacity [3] | IC50 [4] | IC50 ([5]; Homo sapiens, MCF7, 72 h, read-out: IC50 Value ± SD, MCF-7) | IC50 ([6]; Homo sapiens, MDA-MB-231, 72 h, read-out: IC50 Value ± SD, MDA-MB-231) | IC50 ([7]; Homo sapiens, MDA-MB-436, 72 h, read-out: IC50 Value ± SD, MDA-MB-436) | IC50 [8] | IC50 Value ± SD, MCF-7 [5, 10] | IC50 Value ± SD, MDA-MB-231 [6, 10] | IC50 Value ± SD, MDA-MB-436 [7, 10] | IC50 Value ± SD, PBMC [9]
O=C1O[C@H]([C@@H](O)CO)C(O)=C1O [Ascorbic acid (AA), Ascorbic acid, reference compound] | 188.24 ± 6.46 µg/mL | 25.20 ± 3.06 µg/mL | – | – | – | – | – | – | – | – | – | –
Cc1ccc(C(C)C)cc1O [Carvacrol, 2-methyl-5-(1-methylethyl)phenol] | – | 107.88 ± 4.46 µg/mL | 3.535 ± 0.127 mmol TE/g | 470 µM | 5.93 ± 0.77 µg/mL (≈ 39.5 µM) | 9.76 ± 0.23 µg/mL (≈ 65 µM) | 9.5 ± 1.15 µg/mL (≈ 63.2 µM) | 200 µM | – | – | – | –
N.N.[Cl][Pt][Cl] [Cisplatin, reference compound] | – | – | – | – | – | – | – | – | 8.43 ± 0.92 µg/mL | 4.60 ± 0.66 µg/mL | 3.96 ± 0.59 µg/mL | 25.36 ± 1.40 µg/mL
